We go through 3 compounds from article PMC5513743 (Journal of medical virology, 2017).

Series [1] relates to HCV replicon cell line AVA5 (sub-genomic (CON1), genotype 1b). Kind of series: microbe, parasite or virus in culture. Particulars: Hepatitis C virus, GETYPE1B, Ava5, read-out: EC50 (μM) (individual agent).
The test system of a further series is replicon cell line AVA5. Particulars: Table 2; SB 9200 monotherapy.
Another series concerns patient derived HCV. Kind of series: microbe, parasite or virus in culture. It counts as cell-based, hepatitis C virus. Particulars: for IC50: Hepatitis C virus, in Homo sapiens.
Series [2] in a line: in vitro.
Series [3] deals with HCV replicon cell line AVA5 (sub-genomic (CON1), genotype 1b).
Another series concerns HCV. Particulars: SAD and MAD seven-day Phase I study, chronic HCV patients; ref Thompson AJ, 2015; cited from earlier work.
Series [4] in a line: in vitro. The settings on record: human.
Series [5] has as its system HCV replicon H/FL-Neo (genotype 1a (H77), full length construct). Particulars: HCV genotype 1A replicon. For orientation: Replicon systems follow genome replication, usually without infectious particles.
Series [6] deals with fused THP-1/Huh7 derivative cells. Particulars: capture fusion assay, data not shown.

Like-named read-outs stand apart in the source and are kept apart here.

For `NC(=O)c1ncn([C@@H]2O[C@H](CO)[C@@H](O)[C@H]2O)n1` [Ribavirin], in series [1], the EC50 (as a rule, the concentration at which the effect is half-maximal) was more than 30 µM.
In the case of `CO[C@@H]1[C@H](OP(=O)(OC[C@H]2O[C@@H](n3cnc4c(N)ncnc43)C[C@@H]2O)SCOC(=O)OC(C)C)[C@@H](CO)O[C@H]1n1ccc(=O)[nH]c1=O` (stereo partly shown) [SB 9200], the CC50 in the series with replicon cell line AVA5, in “in vitro [2]” and in “in vitro [4]” was more than 100000 nM throughout. In addition, the “inhibition of HCV replication” value in the series on patient derived HCV (Genotypes 1,2,3,4, and 6 patient derived HCV) is listed as “inhibited replication of all the genotypes tested in a dose-dependent manner”. Besides, the 50% inhibitory concentration (IC50) – broadly, the concentration that gives 50% inhibition – with patient derived HCV (G1 strains, patient derived HCV) amounted to 220 ± 76 nM; in the series with patient derived HCV (G3 isolates, patient derived HCV), 35 ± 13 nM. Also, the “difference in activity (IC50) against pre- and post treatment quasi-species” value in the series on patient derived HCV (g3 patient who failed SOF/DAC/RBV, NS5A RAS S62L and Y93H enriched) is on record as “No significant difference”. The “antiviral activity (fold change in HCV RNA from non-treated controls)” value in the series on patient derived HCV (single dose 0.1μM, G3 SVR and NR samples after DAA treatment) was “demonstrated antiviral activity”. The “S.I. (CC50/EC50)” value in series [3] (HCV genotype 1B replicon) is given as more than 100; in series [3] (Table 2, SB 9200 monotherapy) it was more than 100; in series [5], more than 45. Also, the safety and tolerability result in the series with HCV was “safe, well tolerated”. Besides, in series [6], the Cell viability result is listed as “not affected”.
On to `C/C=C/C[C@@H](C)[C@@H](O)[C@H]1C(=O)N[C@@H](CC)C(=O)N(C)[C@H](C)C(=O)N(CC)[C@@H](C(C)C)C(=O)N[C@@H](C(C)C)C(=O)N(C)[C@@H](CC(C)C)C(=O)N[C@@H](C)C(=O)N[C@H](C)C(=O)N(C)[C@@H](CC(C)C)C(=O)N(C)[C@@H](CC(C)C)C(=O)N(C)[C@@H](C(C)C)C(=O)N1C` [alisporivir, reference compound], for which the IC50 with patient derived HCV (G1 patient derived samples) came to 99 nM; with patient derived HCV (G3 patient derived samples) it was 36 nM.
